The values below come from patent US9289430B2, “Compounds and methods for inhibiting phosphate transport” (Ardelyx, Inc., priority 2010, dated 2016).

The subject of series [1] is Uptake of Phosphate from the Intestine. The series is described as follows: In vivo bolus phosphorus challenge. Further details: species or system Sprague-Dawley rats. As to conditions: rats on low-phosphorus diet, oral drug dose 30 (unit not given) 15 min before phosphate bolus, serum 30 min post bolus. On the procedure:
By pretreating animals with a low phosphorus diet followed by the subsequent dosing of a phosphorus bolus, serum phosphorus levels were monitored after 30 minutes as a surrogate for intestinal phosphorus absorption. […] The in vivo bolus phosphorus challenge model used here mimics this model in rats.
Male, 7-week-old Sprague-Dawley rats (Charles-River laboratories international, Hollister, Calif.) were allowed to acclimatize for a minimum of 3 days before switching to a synthetic low-phosphorus diet (TD.85010, Harlan Teklad, Madison, Wis.) which contains 0.1% phosphorus and 0.6% calcium. At day 5, testing compounds or vehicle alone (as indicated) were orally administered at the indicated dose in a volume of 5 ml/kg, followed by a bolus gavage of monobasic sodium phosphate (1 mmol in 1 ml) 15 min after compound dosing. Serum was collected via retroorbital bleeding 30 min post phosphate bolus and phosphate levels were determined utilizing an ACE ALERA blood chemistry analyzer (Alfa Wassermann Diagnostic Technologies, West Caldwell, N.J.).
The extent of inhibition by test compounds on the elevation of serum phosphate levels in response to the bolus of phosphate is shown in Table 3 (data are expressed as % Inhibition, with 6-10 animals per data point). The differences between groups were evaluated by one-way analysis of variance with Dunnett's post hoc tests.

Series [2] can be described thus: Fecal recovery of orally administered compounds. The following applies: rats, oral gavage, nominal 10 mg/kg (actual 7.6-11 mg/kg), feces 0-48 hr after dosing. Format: in vivo, Sprague-Dawley rats. The protocol:
Quantitative determination of test compound level in feces after oral gavage was performed using the same set of animals used to determine test compound concentration in plasma (Example 30). The animals were kept in metabolic cages and feces were collected from the time of dosing until 48 hr after dosing. Upon collection, feces was dried by lyophilization and ground to a visually homogenous powder. Duplicate samples of ground feces from each individual animal were weighed out and extracted using organic solvent. Extracted samples were then diluted into mobile phase and test compound levels were quantitatively determined by LC-MS/MS analysis as described in “Example 30” except that the standard curve was prepared in a feces matrix. Extraction conditions were not optimized for individual compounds, and thus may represent a minimal level of recovery.

Series [3] deals with T1, human NaP2b (SLC34A2) (Homo sapiens, UniProt O95436).
T1 construct: host or cells: HEK293
T1 sequence (O95436 1-690): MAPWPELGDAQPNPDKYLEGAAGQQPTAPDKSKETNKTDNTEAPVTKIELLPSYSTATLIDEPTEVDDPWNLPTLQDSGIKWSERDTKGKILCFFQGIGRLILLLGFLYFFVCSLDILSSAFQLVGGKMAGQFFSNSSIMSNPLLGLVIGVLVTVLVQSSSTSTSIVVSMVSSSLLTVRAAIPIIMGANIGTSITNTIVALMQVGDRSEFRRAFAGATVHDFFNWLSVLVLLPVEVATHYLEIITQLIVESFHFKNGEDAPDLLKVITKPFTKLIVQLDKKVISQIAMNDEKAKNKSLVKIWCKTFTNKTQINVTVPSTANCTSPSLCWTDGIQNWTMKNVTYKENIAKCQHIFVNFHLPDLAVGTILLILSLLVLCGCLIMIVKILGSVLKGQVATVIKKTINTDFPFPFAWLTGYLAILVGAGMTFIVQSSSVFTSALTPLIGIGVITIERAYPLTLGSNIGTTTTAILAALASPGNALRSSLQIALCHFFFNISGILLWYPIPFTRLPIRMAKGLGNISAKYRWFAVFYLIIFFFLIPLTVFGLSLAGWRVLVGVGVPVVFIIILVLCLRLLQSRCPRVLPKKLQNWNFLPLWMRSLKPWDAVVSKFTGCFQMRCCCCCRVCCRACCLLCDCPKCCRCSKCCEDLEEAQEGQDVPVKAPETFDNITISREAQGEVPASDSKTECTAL
The series is described as follows: NaP2b-mediated Pi transport: 33P phosphate uptake into transfected HEK293 cells. As to conditions: human protein with threonine inserted after residue 37 and N39D, 100 uM KH2PO4, read-out: pIC50 range for human Nap2b (converted). Format: cell-based. On the procedure: (§1) Materials. HEK293 cells were obtained from the American Type Culture collection and propagated per their instructions. Expression clones for rat and human NaP2b (SLC34A2) were obtained from Open Biosystems (Catalog numbers MRN1768-9510282, and MHS1010-99823026, respectively). The sequence of the human protein was mutated to insert a threonine after residue 37, and to introduce a N39D mutation.
(§2) Inhibition of Pi Transport. The rate of phosphate (Pi) uptake into HEK293 cells was measured using a modification of the method described by Mohrmann et al. (Mohrmann, I., Mohrmann, M., Biber, J., and Murer, H. (1986) Am. J. Phys. 250(3 Pt 1):G323-30.) Transfected HEK293 cells were treated with a pharmacological agent to minimize endogenous PiT-mediated phosphate transport activity, such that the only remaining sodium-dependent phosphate transport activity is that which was bestowed by introduction of the NaP2b genes.
(§3) Cells were seeded into 96-well plates at 25,000 cells/well and cultured overnight. Lipofectamine 2000 (Invitrogen) was used to introduce the NaP2b cDNA, and the cells were allowed to approach confluence during a second overnight incubation. […] Cells were then overlayed with either choline uptake buffer or sodium uptake buffer (14 mM Tris, 137 mM sodium chloride, 5.4 mM KCl, 2.8 mM CaCl2, 1.2 mM MgSO4, 100 uM KH2PO4, PiT-silencing agent, 1 mg/mL Bovine Serum Albumin, pH 7.4) containing 6-9 uCi/mL ^33P orthophosphoric acid (Perkin Elmer) and test compound. Each compound was tested at twelve concentrations ranging from 0.1 nM to 30 uM. Assays were run in duplicate.
(§4) After incubation for 3-30 minutes at room temperature, assay mixtures were removed, and the cells were washed twice with ice cold stop solution (137 mM sodium chloride, 14 mM Tris, pH 7.4). Cells were lysed by addition of 20 μL 0.1% Tween 80 followed by 100 μL scintillation fluid, and counted using a TopCount (Perkin Elmer).
(§5) pIC50 (the negative log of the IC50) values of the test compounds were calculated using GraphPad Prism.

The target of series [4] is T2, rat NaP2b (SLC34A2) (Rattus norvegicus, UniProt Q9JJ09).
T2 construct: host or cells: HEK293
T2 sequence (Q9JJ09 1-695): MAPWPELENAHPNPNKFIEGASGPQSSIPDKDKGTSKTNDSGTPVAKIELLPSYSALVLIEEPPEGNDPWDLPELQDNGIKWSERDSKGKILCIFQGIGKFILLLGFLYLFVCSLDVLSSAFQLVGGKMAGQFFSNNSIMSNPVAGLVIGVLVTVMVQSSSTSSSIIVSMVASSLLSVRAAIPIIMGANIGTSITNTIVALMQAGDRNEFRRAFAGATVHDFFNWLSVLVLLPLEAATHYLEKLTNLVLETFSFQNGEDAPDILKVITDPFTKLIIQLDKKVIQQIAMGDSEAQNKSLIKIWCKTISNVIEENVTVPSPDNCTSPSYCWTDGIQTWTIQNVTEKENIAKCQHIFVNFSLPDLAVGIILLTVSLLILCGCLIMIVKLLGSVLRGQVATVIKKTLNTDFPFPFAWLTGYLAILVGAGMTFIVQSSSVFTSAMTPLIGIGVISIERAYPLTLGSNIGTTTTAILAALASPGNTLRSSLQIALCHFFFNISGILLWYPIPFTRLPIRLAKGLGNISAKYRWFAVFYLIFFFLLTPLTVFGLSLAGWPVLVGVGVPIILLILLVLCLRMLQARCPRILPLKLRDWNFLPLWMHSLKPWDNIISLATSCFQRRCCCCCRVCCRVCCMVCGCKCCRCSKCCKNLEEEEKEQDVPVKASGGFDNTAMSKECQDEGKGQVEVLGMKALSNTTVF
The series is described as above. Format: cell-based. As to conditions: 100 uM KH2PO4, PiT-silencing agent, read-out: pIC50 range for rat Nap2b (converted). On the procedure: as §1, §2, §3, §4, §5

A short description of series [5]: Stability in simulated gastric and intestinal fluid. Format: in vitro ADME. As to conditions: 6 hr, 1-20 μM. The protocol: Test compounds were incubated at 1-20 μM in simulated gastric fluid (SGF; standard USP solution with 3 mg/mL pepsin) or simulated intestinal fluid (SIF; standard USP solution with 3 mg/mL pancreatin) for 3 hr or 6 hr. HPLC-UV or HPLC-MS were used to determine test compound levels using peak area %. Results (Table 5) were reported as the percentage of test compound remaining after incubation in a given condition relative to test compound present at t=0 in the same condition.

Series [6] has as its system Uptake of Phosphorus from the Intestine. The series is described as follows: In vivo co-dosing in chow, urinary P output relative to P consumed. Further details: species or system Sprague-Dawley rats. The following applies: rats, compound in chow, nominal 100 mg/kg/day (mean actual 104-105 mg/kg/day), mean of 24-96 h, vs control. An excerpt: Male, 7-week-old Sprague-Dawley rats (Charles-River laboratories international, Hollister, Calif.) were allowed to acclimate for a minimum of 3 days. The experiment was initiated by switching animals to a synthetic diet (0.6% phosphorus and 0.6% calcium, Harlan Teklad TD.84122) for four days. After this time, the animals were placed into metabolic cages for daily monitoring of food and water consumption, as well as urine and fecal collections. Test compounds were incorporated into the powdered diet listed above containing 3% chocolate flavoring (w/w, BioSery #7345) at 1.3 mg test compound per gram of diet to achieve an average daily nominal dose of 100 mg/kg/day. The actual dose received by each animal was later determined by measuring prepared diet consumption and body weight. Urine samples were collected in three daily periods from 24-48, 48-72, and 72-96 hours of drug dosing. […] Phosphorous levels in the urine were determined by anion exchange chromatography using a Dionex ICS-3000 ion chromatography system. […] Elution of urine phosphate ions was monitored via conductivity detector and reported as ppm relative to a standard ion solution containing phosphate. Daily urinary P output relative to the P consumed in the prepared diet for each animal was calculated. […] The differences between the means of control and treated groups were evaluated by t tests. […]

With `O=C(O)CCSCc1cccc(C(=O)Nc2ccc(N3CCCCC3)cc2C(=O)Nc2ccn(-c3cccc(C(F)(F)F)c3)n2)c1` [Example 7, 3-((3-((4-(Piperidin-1-yl)-2-((1-(3-(trifluoromethyl)phenyl)-1H-pyrazol-3-yl)carbamoyl)phenyl)carbamoyl)benzyl)thio)propanoic acid], in series [1], the “% Inhibition of Serum P elevation” value is 49%. For the same molecule, in series [2], the “% recovered in feces” value stood at 9.5%. In addition, the IC50 in series [3] and in series [4] was 1 to 7.94 µM throughout.
Turning to `CN(CCOCCOCCOCCC(=O)O)C(=O)c1cccc(C(=O)Nc2ccc(N3CCCCC3)cc2C(=O)Nc2ccn(-c3cccc(C(F)(F)F)c3)n2)c1` [Example 15, 2-Methyl-1-oxo-1-(3-((4-(piperidin-1-yl)-2-((1-(3-(trifluoromethyl)phenyl)-1H-pyrazol-3-yl)carbamoyl)phenyl)carbamoyl)phenyl)-5,8,11-trioxa-2-azatetradecan-14-oic acid], the “% recovered in feces” value in series [2] amounted to 17%. In addition, the IC50 was less than 1 µM in series [3] and 1 to 7.94 µM in series [4]. In addition, the “% remaining, SGF” value in series [5] (simulated gastric fluid with 3 mg/mL pepsin) is recorded as 100%. The “% remaining, SIF” value in series [5] (simulated intestinal fluid with 3 mg/mL pancreatin) is 97%. Also, the “Mean % inhibition Urine Pout/P consumed” value in series [6] was found to be 9%.
